This is an account of results in patent US11091428B2 (HAPLOGEN GMBH, priority 2016, dated 2021).

Experiment [1] has as its system picornaviruses (CVB1, HRV-A2, HRV-A23, EV-68). The experiment is described as follows: Anti-picornavirus cytopathic effect (CPE) reduction assay on HeLa H1 cells. The experiment is classed as cell-based. The settings on record: Enterovirus B, HeLa H1, 48 h, HeLa H1 cells, 48 h, category from averaging the EC50 values from four picornaviruses (CVB1, HRV-A2, HRV-A23, EV68); read-out: EC50 values of the compounds determined in the anti-picornavirus assay. Summed up: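 HeLa H1 cells pre-treated 2 h with serially diluted compound in DMEM/2% FBS, then infected at an MOI giving full CPE in 2 days. After 48 h at 37° C, viability read by CellTiterBlue fluorescence (ex 560/em 590 nm), normalised to infected and uninfected vehicle controls; EC50 by non-linear regression, category from mean of four viruses.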
(Damage to the host cells serves as the signal in cytopathic effect assays.)

Another experiment deals with T1, PLA2G16 (Homo sapiens, UniProt P53816).
T1 construct: Hexa-His (N); made in house; host or cells: E. coli BL21(DE3)
T1 sequence (P53816 1-162): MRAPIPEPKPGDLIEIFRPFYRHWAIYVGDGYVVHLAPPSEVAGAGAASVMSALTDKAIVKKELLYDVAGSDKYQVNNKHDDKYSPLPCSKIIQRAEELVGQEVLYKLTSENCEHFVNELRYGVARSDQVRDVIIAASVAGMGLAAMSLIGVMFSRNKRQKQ
The experiment in a line: Enzyme activity assay for PLA2G16 (Red/Green BODIPY PC-A2 fluorescence). The format is biochemical. The settings on record: His-tagged PLA2G16, 4 min pre-incubation, 2 nM to 50 μM; read-out: IC50 values of the compounds determined in the enzyme activity assay for PLA2G16. Summed up:
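N-His-tagged human PLA2G16 from E. coli, Ni-NTA purified. Pre-incubated 4 min with compound (2 nM–50 μM final) in pH 8.5 Tris/NaCl buffer with 5 mM glutathione, then BODIPY PC-A2 in DOPC/DOPG/cholesterol vesicles added. Fluorescence (ex 480/em 530 nm) increase over 10 min taken as activity; IC50 by non-linear regression.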

Each structure is given as a SMILES string.

Broadly, the EC50 is the midpoint of the concentration-response curve. What is called IC50 is the concentration that inhibits the measured activity by half. Turning to `CCNC(=O)C(=O)C1CCC(=O)N1Cc1ccc(C)s1` (centres unmarked) [FP 278, N-Ethyl-2-{1-[(5-methylthiophen-2-yl)methyl]-5-oxopyrrolidin-2-yl}-2-oxoacetamide], the EC50 in experiment [1] is 1000 to 10000 nM. Also, the IC50 on PLA2G16 is less than 1000 nM.

In the case of `O=C(NC1CC2(COC2)C1)C(=O)[C@H]1CCC(=O)N1Cc1ccccc1` [FP 297, 2-[(2R)-1-Benzyl-5-oxopyrrolidin-2-yl]-N-{2-oxaspiro[3.3]heptan-6-yl}-2-oxoacetamide], in experiment [1], the EC50 was 1000 to 10000 nM. In addition, the IC50 on PLA2G16 was less than 1000 nM.

In the case of `O=C(NCC1CCCCC1)C(=O)C1CCC(=O)N1CC1CCOCC1` (centres unmarked) [FP 248, N-(Cyclohexylmethyl)-2-{1-[(oxan-4-yl)methyl]-5-oxopyrrolidin-2-yl}-2-oxoacetamide], the concentration for a half-maximal effect (EC50) in experiment [1] was less than 1000 nM. Further, at PLA2G16, the IC50 is less than 1000 nM.

For `O=C(NCCc1cnccn1)C(=O)C1CCC(=O)N1Cc1ccccc1` (centres unmarked) [FP 227, 2-(1-Benzyl-5-oxopyrrolidin-2-yl)-2-oxo-N-[2-(pyrazin-2-yl)ethyl]acetamide], the EC50 in experiment [1] lay within 1000 to 10000 nM. Moreover, the IC50 at PLA2G16 was less than 1000 nM.

For the compound `Cc1ccccc1C(=O)NC(C)C(=O)C(=O)NCC1CC1` (centres unmarked) [FP 156, N-(Cyclopropylmethyl)-3-[(2-methylphenyl)formamido]-2-oxobutanamide], the EC50 in experiment [1] was in the range of 1000 to 10000 nM. Besides, the concentration for half-maximal inhibition (IC50) at PLA2G16 was less than 1000 nM.

For the compound `CC(C)NC(=O)[C@H]1C[C@H](NC(=O)C(=O)[C@H]2CCC(=O)N2Cc2ccccc2)C1` [FP 306, (1 r,3r)-3-{2-[(2R)-1-Benzyl-5-oxopyrrolidin-2-yl]-2-oxoacetamido}-N-(propan-2-yl)cyclobutane-1-carboxamide], in experiment [1], the EC50 fell in the range of 1000 to 10000 nM. Further, the 50% inhibitory concentration (IC50) on PLA2G16 is less than 1000 nM.

For the compound `O=C(NCCC1CC1)C(=O)C1CCC(=O)N1Cc1ccccc1` (centres unmarked) [FP 307, 2-(1-Benzyl-5-oxopyrrolidin-2-yl)-N-(2-cyclopropylethyl)-2-oxoacetamide], the EC50 in experiment [1] was less than 1000 nM. Moreover, the IC50 at PLA2G16 is less than 1000 nM.

Regarding `CC(C(=O)C(=O)NCc1cccc(Cl)c1)N(C=O)CC1CCOCC1` (centres unmarked) [FP 24, N-[(3-Chlorophenyl)methyl]-3-{N[(oxan-4-yl)methyl]formamido}-2-oxobutanamide], the EC50 in experiment [1] lay in the range of 1000 to 10000 nM. At PLA2G16, the IC50 was less than 1000 nM.

`O=C(NCC1CC1)C(=O)C1CCC(=O)N1CC1CCCCC1` (centres unmarked) [FP 202, 2-[1-(Cyclohexylmethyl)-5-oxopyrrolidin-2-yl]-N-(cyclopropylmethyl)-2-oxoacetamide]: in experiment [1], the EC50 is less than 1000 nM. Moreover, the IC50 on PLA2G16 was less than 1000 nM.

In the case of `CC(OC1CCCCC1)C(=O)C(=O)NCC1CCCC1` (centres unmarked) [FP 127, 3-(Cyclohexyloxy)-N-(cyclopentylmethyl)-2-oxobutanamide], the EC50 in experiment [1] is less than 1000 nM. The IC50 on PLA2G16 is less than 1000 nM.

As for `CC(C)C(C(=O)C(N)=O)N(C=O)Cc1ccccc1` (centres unmarked) [FP 198, 3-(N-Benzylformamido)-4-methyl-2-oxopentanamide], the EC50 in experiment [1] is greater than 10000 nM. In addition, at PLA2G16, the IC50 lay within 1000 to 10000 nM.

In the case of `CNC(=O)C(=O)C(CC(C)C)N(C=O)Cc1ccccc1` (centres unmarked) [FP 195, 3-(N-Benzylformamido)-N,5-dimethyl-2-oxohexanamide], in experiment [1], the EC50 lay within 1000 to 10000 nM. At PLA2G16, the IC50 was less than 1000 nM.

On to `COc1ccccc1OC(C)C(=O)C(=O)NCc1cccc(Cl)c1` (centres unmarked) [FP 133, N-[(3-Chlorophenyl)methyl]-3-(2-methoxyphenoxy)-2-oxobutanamide], for which, in experiment [1], the EC50 was 1000 to 10000 nM. The IC50 on PLA2G16 is less than 1000 nM.

As for `CC(C)C(NC(=O)c1ccccc1)C(=O)C(=O)NCC1CC1` (centres unmarked) [FP 165, N-(Cyclopropylmethyl)-4-methyl-2-oxo-3-(phenylformamido)pentanamide], the EC50 in experiment [1] is greater than 10000 nM. Besides, the IC50 on PLA2G16 was less than 1000 nM.

Consider `CC(C(=O)C(=O)NCC1CCCCC1)N(C=O)[C@H]1CC[C@@H](NC(=O)OC(C)(C)C)CC1` (some centres unmarked) [FP 54, tert-Butyl N-[(1s,4s)-4-(N{1-[(cyclohexylmethyl)carbamoyl]-1-oxopropan-2-yl}-formamido)cyclohexyl]carbamate], for which the EC50 in experiment [1] is greater than 10000 nM. For the same compound, at PLA2G16, the half-maximal inhibitory concentration (IC50) was less than 1000 nM.

Consider `Cc1ccccc1C(=O)N[C@@H](C)C(=O)C(=O)NCC1CC1` (single isomer, unassigned) [FP 157], for which the EC50 in experiment [1] lay in the range of 1000 to 10000 nM. For the same compound, the IC50 at PLA2G16 was less than 1000 nM.

On to `O=C(NCc1ncccn1)C(=O)[C@H]1CCC(=O)N1Cc1ccccc1` [FP 298, 2-[(2R)-1-Benzyl-5-oxopyrrolidin-2-yl]-2-oxo-N-[(pyrimidin-2-yl)methyl]acetamide], for which the concentration giving a half-maximal response (EC50) in experiment [1] fell in the range of 1000 to 10000 nM. Further, the IC50 on PLA2G16 was less than 1000 nM.

As to `O=C(NCC1CC1)C(=O)[C@H]1CCC(=O)N1Cc1ccccc1` [FP 224, 2-[(2R)-1-Benzyl-5-oxopyrrolidin-2-yl]-N-(cyclopropylmethyl)-2-oxoacetamide], the EC50 in experiment [1] was less than 1000 nM. Further, at PLA2G16, the IC50 is less than 1000 nM.

Consider `CC(C)NC(=O)[C@H]1C[C@@H](NC(=O)C(=O)[C@H]2CCC(=O)N2Cc2ccccc2)C1` [FP 305, (1 s,3s)-3-{2-[(2R)-1-Benzyl-5-oxopyrrolidin-2-yl]-2-oxoacetamido}-N-(propan-2-yl)cyclobutane-1-carboxamide], for which the EC50 in experiment [1] fell in the range of 1000 to 10000 nM. Besides, on PLA2G16, the IC50 is less than 1000 nM.

Take `C[C@H]1CC(=O)N(Cc2ccccc2)[C@@H]1C(=O)C(=O)NCC1CC1` (single isomer, unassigned) [FP 334]: the EC50 in experiment [1] fell in the range of 1000 to 10000 nM. For the same compound, the IC50 on PLA2G16 was less than 1000 nM.

With `CC(C(=O)C(=O)NCC1CCCCC1)N(C=O)CC1CC1` (centres unmarked) [FP 51, N-(Cyclohexylmethyl)-3-[N-(cyclopropylmethyl)formamido]-2-oxobutanamide], the EC50 in experiment [1] lay within 1000 to 10000 nM. Further, on PLA2G16, the IC50 was less than 1000 nM.

Regarding `CC(NC(=O)c1ccccc1)C(=O)C(=O)NCC1CCCCC1` (centres unmarked) [FP 179, N-(Cyclohexylmethyl)-2-oxo-3-(phenylformamido)butanamide], the half-maximal effective concentration (EC50) in experiment [1] is less than 1000 nM. In addition, the IC50 at PLA2G16 was less than 1000 nM.

As for `Cc1ccc(CN2C(=O)CCC2C(=O)C(=O)NC2CC2)s1` (centres unmarked) [FP 277, N-Cyclopropyl-2-{1-[(5-methylthiophen-2-yl)methyl]-5-oxopyrrolidin-2-yl}-2-oxoacetamide], the EC50 in experiment [1] lay in the range of 1000 to 10000 nM. Further, the IC50 at PLA2G16 was less than 1000 nM.

`CC(NS(=O)(=O)c1ccccc1Cl)C(=O)C(=O)NCC1CC1` (centres unmarked) [FP 191, 3-(2-Chlorobenzenesulfonamido)-N-(cyclopropylmethyl)-2-oxobutanamide]: in experiment [1], the EC50 was in the range of 1000 to 10000 nM. In addition, the IC50 on PLA2G16 is less than 1000 nM.

Regarding `CC(C)(O)CNC(=O)C(=O)C1CCC(=O)N1Cc1ccc(Cl)cc1` (centres unmarked) [FP 274, 2-{1-[(4-Chlorophenyl)methyl]-5-oxopyrrolidin-2-yl}-N-(2-hydroxy-2-methylpropyl)-2-oxoacetamide], the EC50 in experiment [1] was 1000 to 10000 nM. On PLA2G16, the half-inhibitory concentration (IC50) is less than 1000 nM.

Consider `COCCC(C(=O)C(=O)NCC1CC1)N(C=O)Cc1ccccc1` (centres unmarked) [FP 70, 3-(N-Benzylformamido)-MN-(cyclopropylmethyl)-5-methoxy-2-oxopentanamide], for which the EC50 in experiment [1] fell in the range of 1000 to 10000 nM. For the same compound, the IC50 at PLA2G16 is less than 1000 nM.

Regarding `O=C(N[C@@H]1C[C@@H]1F)C(=O)[C@H]1CCC(=O)N1Cc1ccccc1` [FP 267, 2-[(2R)-1-Benzyl-5-oxopyrrolidin-2-yl]-N-[(1R,2S)-2-fluorocyclopropyl]-2-oxoacetamide], the EC50 in experiment [1] was less than 1000 nM. The IC50 on PLA2G16 is less than 1000 nM.

Regarding `CCC(=O)N(C)C(C)C(=O)C(=O)NCC1CCCCC1` (centres unmarked) [FP 145, N-(Cyclohexylmethyl)-3-(N-methylpropanamido)-2-oxobutanamide], the EC50 in experiment [1] was 1000 to 10000 nM. The IC50 at PLA2G16 was less than 1000 nM.

As for `CC(OCC1CC1)C(=O)C(=O)NCC1CC1` (centres unmarked) [FP 134, 3-(Cyclopropylmethoxy)-N-(cyclopropylmethyl)-2-oxobutanamide], the concentration for a half-maximal effect (EC50) in experiment [1] was 1000 to 10000 nM. Also, on PLA2G16, the IC50 was less than 1000 nM.

As to `CC(NC(=O)c1ccccc1)C(=O)C(=O)NCC1CCCC1` (centres unmarked) [FP 180, N-(Cyclopentylmethyl)-2-oxo-3-(phenylformamido)butanamide], the EC50 in experiment [1] was in the range of 1000 to 10000 nM. For the same compound, the IC50 at PLA2G16 was less than 1000 nM.

Take `CC(C)CC(C(=O)C(=O)NCC1CC1)N(C=O)CC1CCCO1` (centres unmarked) [FP 74, N-(Cyclopropylmethyl)-5-methyl-2-oxo-3-{N[(oxolan-2-yl)methyl]formamido} hexanamide]: in experiment [1], the EC50 fell in the range of 1000 to 10000 nM. In addition, the half-inhibitory concentration (IC50) at PLA2G16 is less than 1000 nM.

Consider `CCCNC(=O)C(=O)[C@H]1CCC(=O)N1Cc1ccccc1` [FP 288, 2-[(2R)-1-Benzyl-5-oxopyrrolidin-2-yl]-2-oxo-N-propylacetamide], for which the EC50 in experiment [1] was less than 1000 nM. The half-maximal inhibitory concentration (IC50) on PLA2G16 is less than 1000 nM.

With `CCCC(NS(=O)(=O)c1ccccc1)C(=O)C(=O)NCC1CC1` (centres unmarked) [FP 217, 3-Benzenesulfonamido-N-(cyclopropylmethyl)-2-oxohexanamide], the EC50 in experiment [1] is 1000 to 10000 nM. Besides, the IC50 at PLA2G16 was less than 1000 nM.

For the compound `CC(=O)NCCOCCOCCNC(=O)C(=O)C1CCC(=O)N1Cc1ccc(Cl)cc1` (centres unmarked) [FP 327, 2-{1-[(4-Chlorophenyl)methyl]-5-oxopyrrolidin-2-yl}-N-{2-[2-(2-acetamidoethoxy)-ethoxy]ethyl}-2-oxoacetamide], in experiment [1], the EC50 was greater than 10000 nM. Moreover, at PLA2G16, the IC50 lay within 1000 to 10000 nM.
